Measurements as given in ChEMBL document CHEMBL1148688, “4-Aryl-5-cyano-2-aminopyrimidines as VEGF-R2 inhibitors: synthesis and biological evaluation” (Bioorg Med Chem Lett, 2007).

Key:
[1] = biological target: Vascular endothelial growth factor receptor 2 (Homo sapiens, UniProt P35968); assay: Inhibition of VEGFR2 activity
[2] = test system: Mus musculus; assay: Decrease in body weight in C57BL/6 mouse at 100 to 175 mg/kg, po; settings: in vivo
[3] = test system: Mus musculus; assay: Drug level in nude mouse plasma at 100 mg/kg, po; type: ADME, organism-based; set-up: dose 100 mg/kg, route oral; settings: in vivo
[4] = biological target: Cyclin-dependent kinase 1 (Homo sapiens, UniProt P06493); assay: Inhibition of CDK1 activity
Sequence of Cyclin-dependent kinase 1 (P06493 whole entry): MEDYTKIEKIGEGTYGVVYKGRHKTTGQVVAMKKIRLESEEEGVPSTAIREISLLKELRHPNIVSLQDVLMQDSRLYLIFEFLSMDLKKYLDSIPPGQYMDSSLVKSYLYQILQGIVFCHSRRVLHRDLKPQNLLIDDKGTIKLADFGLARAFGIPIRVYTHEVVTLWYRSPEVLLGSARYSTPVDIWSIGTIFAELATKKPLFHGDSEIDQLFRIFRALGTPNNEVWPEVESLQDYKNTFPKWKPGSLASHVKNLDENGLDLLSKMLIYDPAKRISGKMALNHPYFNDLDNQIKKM

[5] = Area under curve in nude mouse at 3 mg/kg; type: ADME, organism-based; set-up: dose 3 mg/kg; settings: in vivo
[6] = Oral bioavailability in nude mouse at 3 mg/kg; type: ADME, organism-based; settings: in vivo
[7] = Half life in nude mouse at 100 mg/kg, po; type: ADME, organism-based; set-up: dose 100 mg/kg, route oral; settings: in vivo

Sequence of Vascular endothelial growth factor receptor 2 (P35968 whole entry): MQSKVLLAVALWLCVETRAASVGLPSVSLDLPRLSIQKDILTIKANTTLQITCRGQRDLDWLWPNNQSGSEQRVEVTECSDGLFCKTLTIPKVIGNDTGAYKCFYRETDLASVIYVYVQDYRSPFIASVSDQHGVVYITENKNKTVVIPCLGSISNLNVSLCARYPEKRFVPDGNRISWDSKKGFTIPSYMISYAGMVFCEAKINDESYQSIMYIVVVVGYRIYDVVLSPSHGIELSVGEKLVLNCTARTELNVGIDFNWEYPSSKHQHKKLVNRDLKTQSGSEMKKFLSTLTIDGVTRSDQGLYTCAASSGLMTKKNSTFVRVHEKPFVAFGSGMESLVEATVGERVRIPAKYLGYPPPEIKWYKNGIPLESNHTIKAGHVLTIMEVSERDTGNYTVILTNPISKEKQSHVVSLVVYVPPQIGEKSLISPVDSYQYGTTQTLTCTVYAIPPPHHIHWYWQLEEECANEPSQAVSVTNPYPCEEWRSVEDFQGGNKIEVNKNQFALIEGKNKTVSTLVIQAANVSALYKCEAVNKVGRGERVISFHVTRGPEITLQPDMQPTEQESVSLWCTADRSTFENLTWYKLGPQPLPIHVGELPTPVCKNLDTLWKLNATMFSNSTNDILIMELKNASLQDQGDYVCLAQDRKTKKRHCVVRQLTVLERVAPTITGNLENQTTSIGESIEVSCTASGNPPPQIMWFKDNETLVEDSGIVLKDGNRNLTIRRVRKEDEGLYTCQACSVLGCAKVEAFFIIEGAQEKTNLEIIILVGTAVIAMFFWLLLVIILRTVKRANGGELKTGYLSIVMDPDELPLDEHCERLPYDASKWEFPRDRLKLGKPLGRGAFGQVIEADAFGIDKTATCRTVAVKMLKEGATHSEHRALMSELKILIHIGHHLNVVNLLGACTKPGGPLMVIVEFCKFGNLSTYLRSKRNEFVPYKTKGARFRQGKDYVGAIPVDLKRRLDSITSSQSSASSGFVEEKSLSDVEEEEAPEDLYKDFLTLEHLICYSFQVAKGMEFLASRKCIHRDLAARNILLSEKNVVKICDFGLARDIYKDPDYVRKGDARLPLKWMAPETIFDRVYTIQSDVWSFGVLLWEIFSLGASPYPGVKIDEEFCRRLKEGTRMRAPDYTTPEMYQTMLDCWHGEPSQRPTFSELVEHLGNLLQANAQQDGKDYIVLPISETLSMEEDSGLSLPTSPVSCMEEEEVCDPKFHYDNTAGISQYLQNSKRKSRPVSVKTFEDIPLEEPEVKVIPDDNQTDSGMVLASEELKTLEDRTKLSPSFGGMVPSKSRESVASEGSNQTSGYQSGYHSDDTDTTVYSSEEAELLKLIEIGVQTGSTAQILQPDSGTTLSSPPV

| SMILES | IC50 [1] | IC50 [4] | also measured |
| --- | --- | --- | --- |
| CC(C)(N)c1ccc(-c2nc(Nc3ccc(CCN4CCOCC4)cc3)ncc2C#N)cc1 | 0.027 µM | 4.1 µM | Activity [2]: Not Active; concentration [3]: 12 µM; AUC [5]: 15.6 µM·h; bioavailability [6]: 44%; half-life [7]: 7 h |
| CC(C)(N)c1ccc(-c2nc(Nc3cccc(CCN4CCOCC4)c3)ncc2C#N)cc1 | 0.055 µM | 5.7 µM |  |
| CCc1nccn1CCc1ccc(Nc2ncc(C#N)c(-c3ccc(C(C)(C)N)cc3)n2)cc1 | 0.094 µM | 4.8 µM |  |
| N#Cc1cnc(Nc2ccc(CN3CCCC3)cc2)nc1-c1ccccc1 | 0.061 µM | 6.2 µM |  |
| N#Cc1cnc(Nc2ccc(CCN3CCCC3)cc2)nc1-c1ccccc1 | 0.11 µM | 6.5 µM |  |
| N#Cc1cnc(Nc2ccc(CCC(=O)N3CCOCC3)cc2)nc1-c1ccccc1 | 0.18 µM | 2.1 µM |  |
| N#Cc1cnc(Nc2cccc(CN3CCOCC3)c2)nc1-c1ccccc1 | 0.36 µM | 2 µM |  |
| COc1cccc(Nc2ncc(C#N)c(-c3ccccc3)n2)c1 | 0.38 µM | 4.2 µM |  |
| Cc1cc2cc(Nc3ncc(C#N)c(-c4ccccc4)n3)ccc2[nH]1 | 0.41 µM | 3.3 µM |  |
| Cc1ccc(Nc2ncc(C#N)c(-c3ccccc3)n2)cc1 | 1 µM | 3.5 µM |  |
| N#Cc1cnc(Nc2nc3ccccc3[nH]2)nc1-c1ccccc1 | 10 µM | > 10 µM |  |
| N#Cc1cnc(Nc2ncccn2)nc1-c1ccccc1 | > 10 µM | > 10 µM |  |
| N#Cc1cnc(Nc2ccc(Cl)cc2)nc1-c1ccccc1 | > 10 µM | > 10 µM |  |
| COc1ccc(-c2nc(Nc3ccc(CCO)cc3)ncc2C#N)cc1 | 0.15 µM | 1.5 µM |  |
| N#Cc1cnc(Nc2ccc(CCO)cc2)nc1-c1ccc(Br)cc1 | 0.18 µM | 2 µM |  |
| COc1ccccc1Nc1ncc(C#N)c(-c2ccccc2)n1 | > 10 µM | > 10 µM |  |

| SMILES | IC50 [1] | IC50 [4] | also measured |
| --- | --- | --- | --- |
| N#Cc1cnc(Nc2ccc(CCO)cc2)nc1-c1ccc(S(N)(=O)=O)cc1 | 0.2 µM | 1.9 µM |  |
| N#Cc1cnc(Nc2ccc(CCO)cc2)nc1-c1nc2ccccc2s1 | 0.34 µM | 0.56 µM |  |
| CC(C)(O)c1ccc(-c2nc(Nc3ccc(CCO)cc3)ncc2C#N)cc1 | 0.41 µM | 2.7 µM |  |
| CC(C)(C)c1nc(Nc2ccc(CCO)cc2)ncc1C#N | 1.6 µM | 1.1 µM |  |
| CC(C)(N)c1ccc(-c2nc(Nc3ccc(OCCN4CCOCC4)cc3)ncc2C#N)cc1 | 0.45 µM | 21 µM |  |
| CC(C)(N)c1ccc(-c2nc(Nc3ccc(CCO)cc3)ncc2C#N)cc1 | 0.052 µM | 1.6 µM |  |
| N#Cc1cnc(Nc2ccc(CCO)cc2)nc1-c1cccs1 | 0.082 µM | 0.47 µM |  |
| COc1ccc(Nc2ncc(C#N)c(-c3ccccc3)n2)cc1 | 0.49 µM | 3.3 µM |  |
| COc1cc(Nc2ncc(C#N)c(-c3ccccc3)n2)ccc1CN1CCCC1 | 0.091 µM | 9 µM |  |
| N#Cc1cnc(Nc2ccc(CCO)cc2)nc1-c1ccc2[nH]ccc2c1 | 0.09 µM | 0.41 µM |  |
| N#Cc1cnc(Nc2ccc(CCO)cc2)nc1-c1ccccc1 | 0.2 µM | 2 µM |  |
| N#Cc1cnc(Nc2ccc(CCO)cc2)nc1-c1cc2ccccc2[nH]1 | 1.4 µM | 1.7 µM |  |
| N#Cc1cnc(Nc2ccc3ccccc3c2)nc1-c1ccccc1 | 2.1 µM | > 10 µM |  |
| N#Cc1cnc(Nc2ccccc2Cl)nc1-c1ccccc1 | > 10 µM | > 10 µM |  |
| CN1CCN(CCc2ccc(Nc3ncc(C#N)c(-c4ccc(C(C)(C)N)cc4)n3)cc2)CC1 | 0.021 µM | 5.6 µM |  |
| N#Cc1cnc(Nc2ccccc2)nc1-c1ccccc1 | 1 µM | > 10 µM |  |
